Data reported in paper PMC6277198, “Molecular basis for activation of lecithin:cholesterol acyltransferase by a compound that increases HDL cholesterol” (eLife, 2018).
Positions count from the first letter of the chain named. “Also recorded” adds a separate entry of the source.

How the values were obtained:
LCAT G71I = target: T1, LCAT G71I (Homo sapiens, UniProt P04180, G95I); assay: MUP hydrolysis (esterase) assay; assay type: biochemical; details: compound titrated from 0.04 to 9.5 μM
T1 construct: hydrolysis of 4-methylumbelliferyl palmitate (MUP) by full-length LCAT; made in house; host or cells: HEK293F (transient transfection, secreted)
T1 sequence (P04180 25-440 G95I): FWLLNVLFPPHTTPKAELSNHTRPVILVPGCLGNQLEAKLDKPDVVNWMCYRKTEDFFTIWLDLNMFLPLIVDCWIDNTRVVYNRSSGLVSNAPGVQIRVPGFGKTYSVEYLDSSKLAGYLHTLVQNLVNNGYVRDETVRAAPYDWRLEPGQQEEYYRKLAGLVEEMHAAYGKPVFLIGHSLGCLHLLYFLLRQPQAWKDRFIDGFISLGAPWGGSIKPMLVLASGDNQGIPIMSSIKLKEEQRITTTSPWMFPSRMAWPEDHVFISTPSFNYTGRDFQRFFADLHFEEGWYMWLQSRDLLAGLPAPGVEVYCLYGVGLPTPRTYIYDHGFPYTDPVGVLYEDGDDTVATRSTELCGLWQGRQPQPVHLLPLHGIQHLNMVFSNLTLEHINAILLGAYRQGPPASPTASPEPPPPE
Description: (§1) The lipase activity of LCAT was measured using MUP as a substrate. The assay was performed at room temperature in 0.1 M sodium phosphate buffer, pH 7.4 containing 0.01% Triton X-100. 4 μL of LCAT (6 nM final concentration) were dispensed into a 1536-well Greiner solid black plate. The same volume of assay buffer was dispensed into column 1 and 2 for a no-enzyme control. […] After 15 min incubation, 2 μL MUP (16 μM final concentration) was added to initiate the reaction. The hydrolysis of MUP was monitored using a ViewLux plate reader (excitation 380 nm/emission 450 nm) for 20 min. The fluorescence signal was normalized against no-activator and no-enzyme control after subtraction of background signal (t = 0 min). To plot percent activation, in each assay 100% was set at the rate of LCAT or LCAT variant without compound. The resulting data were fitted to a sigmoidal dose response curve.

LCAT Y51S/G71I = target: T2, LCAT Y51S/G71I (Homo sapiens, UniProt P04180, G95I/Y75S); assay: MUP hydrolysis (esterase) assay; assay type: biochemical; details: compound titrated from 0.04 to 9.5 μM
T2 construct: hydrolysis of 4-methylumbelliferyl palmitate (MUP) by full-length LCAT; made in house; host or cells: HEK293F (transient transfection, secreted)
T2 sequence (P04180 25-440 Y75S/G95I): T1 sequence (P04180 25-440 G95I) with Y51S
Description: as §1

LCAT Y51S = target: T3, LCAT Y51S (Homo sapiens, UniProt P04180, Y75S); assay: MUP hydrolysis (esterase) assay; assay type: biochemical
T3 construct: hydrolysis of 4-methylumbelliferyl palmitate (MUP) by full-length LCAT; made in house; host or cells: HEK293F (transient transfection, secreted)
T3 sequence (P04180 25-440 Y75S): T1 sequence (P04180 25-440 G95I) with Y51S, I71G
Description: as §1

WT LCAT = target: T4, WT LCAT (Homo sapiens, UniProt P04180); assay: Differential scanning fluorimetry; assay type: binding; parameters: hydrolysis of 4-methylumbelliferyl palmitate (MUP) by full-length LCAT; made in house; host or cells: HEK293F (transient transfection, secreted); details: for Thermal stabilization (DSF): WT LCAT; for Thermal stabilization of WT LCAT (DSF): compound at 10 μM
T4 sequence (P04180 25-440): T1 sequence (P04180 25-440 G95I) with I71G
Description: Tm values were determined using an Applied Biosystems QuantStudio 7 Flex qPCR machine with two replicates performed at least in triplicate. LCAT at 0.05 mg mL^−1 was diluted into reaction buffer containing 5X Sypro Orange in a final volume of 10 μL in 384-well PCR plates. DMSO or compound 1 was added so that all reactions contained 3% DMSO. The reactions were run from 25–95 °C with a ramp rate of 0.03 °C s^−1. Tm values were determined as the derivative using Protein Thermal Shift software. Significance was determined using a one-way analysis of variance followed by Tukey’s multiple comparisons post-test in GraphPad Prism.

[1] = Y51S, compound titrated from 0.04 to 9.5 μM

SMILES	EC50 (LCAT G71I) [µM]	Fold activation, MUP esterase assay (LCAT G71I)	Fold activation, MUP esterase assay (LCAT Y51S/G71I)	MUP assay EC50 (LCAT Y51S/G71I)	EC50 (LCAT Y51S; [1]) [µM]	Fold activation, MUP esterase assay (LCAT Y51S; [1])	MUP EC50 of Y51S relative to WT (LCAT Y51S; fold higher than WT) [fold]	Thermal stabilization (DSF) (WT LCAT)	EC50 (LCAT Y51S/G71I) [µM]	Thermal stabilization of WT LCAT (DSF) (WT LCAT)	MUP assay EC50 (LCAT G71I)	MUP assay EC50 (LCAT Y51S; [1])
N#Cc1cnc(N2CCC(c3n[nH]c4c3C(O)(C(F)(F)F)CC(=O)N4)CC2)cc1C(F)(F)F (stereo not shown) [compound 1, 6-(4-(4-Hydroxy-6-oxo-4-(trifluoromethyl)−4,5,6,7-tetrahydro-1H-pyrazolo[3,4-b]pyridin-3-yl)piperidin-1-yl)−4-(trifluoromethyl)nicotinonitrile]	> 5	1.5 ± 0.4 fold	1.3 ± 0.3 fold	no response; also recorded: no effect	0.59 ± 0.03	1.9 ± 0.2 fold	4	stabilize				
O=C1CC(O)(C(F)(F)F)c2c(ncn2C2CCN(c3cnc(C(F)(F)F)cn3)CC2)N1 (stereo not shown) [compound 3, 7-Hydroxy-7-(trifluoromethyl)−1-(1-(5-(trifluoromethyl)pyrazin-2-yl)piperidin-4-yl)−6,7-dihydro-1H-imidazo[4,5-b]pyridin-5(4H)-one]	> 5	1.5 ± 0.2 fold	1.1 ± 0.06 fold	no effect	1.6 ± 0.4	1.9 ± 0.2 fold		stabilize				
O=c1cc(C(F)(F)F)c2c(ncn2C2CCN(c3cnc(C(F)(F)F)cn3)CC2)[nH]1 [compound 8, 7-(trifluoromethyl)−1-(1-(5-(trifluoromethyl)pyrazin-2-yl)piperidin-4-yl)−1H-imidazo[4,5-b]pyridin-5(4H)-one]	> 10	1.2 ± 0.1 fold	1.1 ± 0.07 fold		> 10	2.8 ± 0.6 fold			> 10	do not stabilize; also recorded: could not thermal stabilize		
O=C1CC(O)(C(F)(F)F)c2c(C3CCN(c4cnc(C(F)(F)F)cn4)CC3)n[nH]c2N1 (stereo not shown) [compound 2, 4-Hydroxy-4-(trifluoromethyl)−3-(1-(5-(trifluoromethyl)pyrazin-2-yl)piperidin-4-yl)−4,5-dihydro-1H-pyrazolo[3,4-b]pyridin-6(7H)-one]	> 5	1.7 ± 0.2 fold	0.99 ± 0.03 fold	no effect	0.74 ± 0.2	1.8 ± 0.1 fold		stabilize				
O=C1CC(O)(C(F)(F)F)c2c(C3CCN(c4cnc(C(F)(F)F)cn4)CC3)noc2N1 (stereo not shown) [compound 9, 4-hydroxy-4-(trifluoromethyl)−3-(1-(5-(trifluoromethyl)pyrazin-2-yl)piperidin-4-yl)−4,5-dihydroisoxazolo[5,4-b]pyridin-6(7H)-one]		0.96 ± 0.01 fold	0.97 ± 0.003 fold	no effect	> 10	1.1 ± 0.07 fold				do not stabilize; also recorded: could not thermal stabilize	no effect	
O=C1CC(O)(C(F)(F)F)c2c(ncn2C2CCNCC2)N1 (stereo not shown) [compound 6, 7-Hydroxy-1-(piperidin-4-yl)−7-(trifluoromethyl)−6,7-dihydro-1H-imidazo[4,5-b]pyridin-5(4H)-one]		no effect	no effect	no effect		no effect				do not stabilize; also recorded: could not thermal stabilize	no effect	no effect
